Data published in the NIST ThermoML archive (doi:10.1021/acs.jced.8b00135).
Numbers after ± are expanded uncertainties.

Assays:
[1] = 96.5 kPa, Liquid, Capillary tube (Ostwald / Ubbelohde) method
[2] = refractive index (Na D-line) (dimensionless); details: 96.5 kPa, Liquid, Standard Abbe refractometry

Work on `Cc1ccccc1O` [2-methylphenol] yielded a viscosity ([1]; 288.15 K) of 13.28 ± 0.31 mPa·s, a viscosity ([1]; 293.15 K) of 9.68 ± 0.23 mPa·s and a viscosity ([1]; 298.15 K) of 7.76 ± 0.17 mPa·s. The viscosity ([1]; 303.15 K) was 6.575 ± 0.15 mPa·s, the viscosity ([1]; 308.15 K) was 5.566 ± 0.12 mPa·s and the refractive index ([2]; 288.15 K) was 1.5407 ± 0.008. For the same compound, the refractive index ([2]; 293.15 K) was 1.5392 ± 0.008, the refractive index ([2]; 298.15 K) was 1.5382 ± 0.008 and the refractive index ([2]; 303.15 K) was 1.5362 ± 0.008. The refractive index ([2]; 308.15 K) was 1.5336 ± 0.008.
